Measurements from patent US20260069534A1, “ORAL DELIVERY OF ACTIVE COMPOUNDS FOR TREATING GLYCOGEN STORAGE DISEASES” (LYOTROPIC DELIVERY SYSTEMS LTD., priority 2022, published 2026).

How the values were obtained:
[1] = Tissue penetration / distribution in APBD model mice (LC-MS/MS); type: in vivo
Method: FIGS. 8A-8B show tissue penetration test results in APBD model mice for Compound GHF-201 in non-formulated form (FIG. 8A) and formulated in LDS-C formulation (FIG. 8B). For pharmacokinetic analysis, 100 μl serum as well as brain, kidney, hind limb quad muscle, heart, liver, and spleen tissues were collected, homogenized, and extracted with acetonitrile following established guidelines (Kapetanovic et al, 2006). Calibration curves were made with 0, 1, 10, 100, and 1,000 ng/ml GHF-201 in 1 mg/ml solutions of 4-tert-butyl-2-(4H-1,2,4-triazol-4-yl) phenol (ChemBridge) as internal standard (IS). Tissue samples were then dissolved in 1 mg/ml IS solutions and spiked with 0-1,000 ng/ml GHF-201 to generate standard curves from which tissue levels of GHF201 were determined. Samples were analyzed by the LC-MS/MS Sciex Triple Quad™ 5500 mass spectrometer.
Gbeys/ys mice injected subcutaneously with 250 mg/kg GHF-201 were sacrificed 30, 60, 90, and 210 min post injection, and the indicated tissues were removed, as well as 100 μL of serum drawn. […] Results obtained from n=3 mice at each time point.
The distribution and kinetic parameters of GHF-201 was assessed in different tissues.

[2] = Pharmacokinetics, 3-day oral dose escalation study in APBD patients; type: in vivo, human; details: for Cmax: human, plasma, oral, 340 mg, per os in formulation LDS-C, 170, 255, 340 mg on days 1, 2, 3
Method: (§1) Compound GHF-201 was administered to APBD modeling mice as a 5% DMSO solution, IV injected twice a week at a dose of 250 mg/kg, equivalent to a daily dose of 70 mg/kg. Daily injection was avoided due to the relatively long duration of treatment (6 months), which might have led to excessive scarring. Following positive results in the murine model, compound GHF-201 was administered to two APBD patients as a part of a 3-day oral dose escalation study, during which clinical safety and pharmacokinetic profiles were determined.
Blood was drawn during three consecutive days according to the following regime—pre-administration and 0.5 h, 1 h. 1.5 h, 2 h, and 4 h post-administration. Compound GHF-201 was administered as formulation LDS-C. 7.15% Compound GHF-201. Active ingredient doses were 170 mg on the first day, 255 mg on the second day, and 340 mg on the third day.
Following blood drawing, plasma was separated by centrifugation (up to 1 h from drawing) at 2000 g for 10 min. at 4° C. Compound GHF-201 levels in plasma (supernatant) samples were determined by LC-Mass Spectrometry (LC-MS/MS) using Sciex Triple Quad™ 5500 mass spectrometer. 100 μl of plasma were collected and extracted in 500 μl acetonitrile solution (acetonitrile/water 1:1 v/v). Calibration curves were made with 0.1, 10, 100, and 1000 ng/ml compound GHF-201 in 1 mg/ml solutions of 4-tert-butyl-2-(4H-1,2,4-triazol-4-yl) phenol (ChemBridge) as internal standard (IS). The samples were dissolved in 1 mg/ml IS solutions and spiked with 0-1000 ng/ml of compound GHF-201 to generate standard curves from which plasma levels of compound GHF-201 were determined.

[3] = Pharmacokinetic profile in APBD modeling mice, IV 250 mg/kg; details: in vivo
Method: FIGS. 9A-9C are pharmacokinetic profiles of Compound GHF-201 administered per os in formulation LDS-C to APBD patient 1 (FIG. 9A) and IV at 250 mg/kg to n=3 APBD modeling mice (FIG. 9B). Active ingredient doses in days 1, 2, and 3 were 170 mg, 255 mg, and 340 mg, respectively. Encircled in A, values blown up in FIG. 9C.
as §1
Following the FDA human equivalent dose calculation, mouse dose can be converted to human dose by dividing by 12. […] Divided by 12, 4,700 ng/mL yields 392 ng/mL. […] Therefore, it was assumed that a human equivalent, or higher, dose in patients is at least as effective as the equivalent dose in mice.

mice = experiment: 14-day safety study in mice; type: in vivo; details: 14-day study
Method: Pharmacokinetically, subcutaneously injected in mice, compound GHF-201 had high dwell time and persistence (>3 h) in the liver, intermediate levels and persistence in brain and heart (1 h) and negligible distribution to the muscle. […] The ameliorative effect on extension reflex is especially important since the patient correlate is pyramidal tetraparesis or upper motor neuron signs which are one of the main neurological deficiencies in APBD patients.

[4] = subcutaneously injected in mice

## COCCN(Cc1sccc1C)C(=O)c1cc(C)[nH]c(=O)c1 [Compound GHF-201]
[1]; orally administered in formulation vs subcutaneous injections of GHF-201 in solution, APBD model mice
  bioavailability increase in all tissues: at least three-fold
[1]; [4]
  distribution to the muscle: negligible
  dwell time and persistence in the liver: > 3 h
  persistence in brain and heart: 1 h
[2]; patient 1
  Cmax: 894 ng/mL
[2]; patient 2
  Cmax: 883 ng/mL
[2]; patients 1 and 2, sum of trapezoids
  Areas Under the Curve (AUC): correlated with the level of compound GHF-201 administered
[2]; patients, three consecutive days
  pre-administration levels in the plasma: increased every consecutive day
[3]; intravenous, 250 mg/kg, FDA human equivalent dose calculation
  Human-equivalent Cmax (mouse Cmax divided by 12): 392 ng/mL
[3]; mouse, APBD modeling mice, IV 250 mg/kg
  Cmax: 4700 ng/mL
mice
  safety: safe
